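Five compound concentrations were applied to cells in 96-well plates for 48 hours; endpoints were derived by simple linear interpolation of the resulting dose-response curve. GI50 marks 50% less growth. TGI marks complete inhibition of growth.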
Columns and labels:
Test in all cases: NCI-60 cell line screen, 48 h
SK-MEL-28 melanoma = tested on: SK-MEL-28 melanoma
LOX IMVI melanoma = tested on: LOX IMVI melanoma
K-562 leukemia = tested on: K-562 leukemia
TK-10 renal = tested on: TK-10 renal
MDA-MB-435 = tested on: MDA-MB-435
MOLT-4 leukemia = tested on: MOLT-4 leukemia
NCI-H23 lung = tested on: NCI-H23 lung
HCT-15 colon = tested on: HCT-15 colon
NCI/ADR-RES ovarian = tested on: NCI/ADR-RES ovarian
SF-268 CNS = tested on: SF-268 CNS
CAKI-1 renal = tested on: CAKI-1 renal
T-47D breast = tested on: T-47D breast
SF-539 CNS = tested on: SF-539 CNS
UO-31 renal = tested on: UO-31 renal
786-0 renal = tested on: 786-0 renal
A498 renal = tested on: A498 renal
SN12C renal = tested on: SN12C renal
MALME-3M melanoma = tested on: MALME-3M melanoma
IGROV1 ovarian = tested on: IGROV1 ovarian
HS 578T breast = tested on: HS 578T breast
SK-OV-3 ovarian = tested on: SK-OV-3 ovarian
HCT-116 colon = tested on: HCT-116 colon
MCF7 breast = tested on: MCF7 breast
SNB-75 CNS = tested on: SNB-75 CNS
RXF 393 renal = tested on: RXF 393 renal
ACHN renal = tested on: ACHN renal
NCI-H460 lung = tested on: NCI-H460 lung
DU-145 prostate = tested on: DU-145 prostate
HCC-2998 colon = tested on: HCC-2998 colon
PC-3 prostate = tested on: PC-3 prostate
SF-295 CNS = tested on: SF-295 CNS
HL-60(TB) leukemia = tested on: HL-60(TB) leukemia
HOP-92 NSCLC = tested on: HOP-92 NSCLC
OVCAR-5 ovarian = tested on: OVCAR-5 ovarian
HOP-62 NSCLC = tested on: HOP-62 NSCLC
UACC-62 melanoma = tested on: UACC-62 melanoma
CCRF-CEM leukemia = tested on: CCRF-CEM leukemia
M14 melanoma = tested on: M14 melanoma
OVCAR-8 ovarian = tested on: OVCAR-8 ovarian
NCI-H226 lung = tested on: NCI-H226 lung
SNB-19 CNS = tested on: SNB-19 CNS
EKVX NSCLC = tested on: EKVX NSCLC
NCI-H522 lung = tested on: NCI-H522 lung
MDA-MB-231 breast = tested on: MDA-MB-231 breast
BT-549 breast = tested on: BT-549 breast
OVCAR-4 ovarian = tested on: OVCAR-4 ovarian
SK-MEL-5 melanoma = tested on: SK-MEL-5 melanoma
KM12 colon = tested on: KM12 colon
SK-MEL-2 melanoma = tested on: SK-MEL-2 melanoma
RPMI-8226 leukemia = tested on: RPMI-8226 leukemia
U251 CNS = tested on: U251 CNS
SW-620 colon = tested on: SW-620 colon
HT29 colon = tested on: HT29 colon
SR leukemia = tested on: SR leukemia
A549 NSCLC = tested on: A549 NSCLC
UACC-257 melanoma = tested on: UACC-257 melanoma
COLO 205 colon = tested on: COLO 205 colon

## NC(N)=Nc1ccc(Oc2cccc(Nc3ccc(Cl)c(C(F)(F)F)c3)c2)cc1
SK-MEL-28 melanoma
  GI50: 1740 nM
  TGI: 3160 nM
LOX IMVI melanoma
  GI50: 1690 nM
  TGI: 3150 nM
K-562 leukemia
  GI50: 2500 nM
  TGI: 6510 nM
TK-10 renal
  GI50: 1940 nM
  TGI: 4750 nM
MDA-MB-435
  GI50: 1670 nM
  TGI: 3080 nM
MOLT-4 leukemia
  GI50: 1950 nM
  TGI: 4570 nM
NCI-H23 lung
  GI50: 1710 nM
  TGI: 3210 nM
HCT-15 colon
  GI50: 1920 nM
  TGI: 4360 nM
NCI/ADR-RES ovarian
  GI50: 14800 nM
  TGI: 34300 nM
SF-268 CNS
  GI50: 1580 nM
  TGI: 3050 nM
CAKI-1 renal
  GI50: 1730 nM
  TGI: 3570 nM
T-47D breast
  GI50: 1750 nM
  TGI: 3950 nM
SF-539 CNS
  GI50: 1710 nM
  TGI: 3140 nM
UO-31 renal
  GI50: 2950 nM
  TGI: 11700 nM
786-0 renal
  GI50: 1620 nM
  TGI: 3190 nM
A498 renal
  GI50: 1640 nM
  TGI: 3200 nM
SN12C renal
  GI50: 1690 nM
  TGI: 3450 nM
MALME-3M melanoma
  GI50: 1720 nM
  TGI: 3680 nM
IGROV1 ovarian
  GI50: 1270 nM
  TGI: 2740 nM
HS 578T breast
  GI50: 1930 nM
  TGI: 4620 nM
SK-OV-3 ovarian
  GI50: 2690 nM
  TGI: 6670 nM
HCT-116 colon
  GI50: 1620 nM
  TGI: 3130 nM
MCF7 breast
  GI50: 1720 nM
  TGI: 3480 nM
SNB-75 CNS
  GI50: 1200 nM
  TGI: 2500 nM
RXF 393 renal
  GI50: 1620 nM
  TGI: 3050 nM
ACHN renal
  GI50: 2790 nM
  TGI: 8470 nM
NCI-H460 lung
  GI50: 1880 nM
  TGI: 3560 nM
DU-145 prostate
  GI50: 1980 nM
  TGI: 3720 nM
HCC-2998 colon
  GI50: 1750 nM
  TGI: 3240 nM
PC-3 prostate
  GI50: 1540 nM
  TGI: 3000 nM
SF-295 CNS
  GI50: 1660 nM
  TGI: 3210 nM
HL-60(TB) leukemia
  GI50: 1990 nM
  TGI: 4290 nM
HOP-92 NSCLC
  GI50: 1290 nM
  TGI: 2650 nM
OVCAR-5 ovarian
  GI50: 1560 nM
  TGI: 2940 nM
HOP-62 NSCLC
  GI50: 1600 nM
  TGI: 3160 nM
UACC-62 melanoma
  GI50: 1750 nM
  TGI: 3230 nM
CCRF-CEM leukemia
  GI50: 2680 nM
  TGI: 8960 nM
M14 melanoma
  GI50: 1820 nM
  TGI: 3450 nM

## COc1ccc(Cn2cc3c(c2-c2cc(OC)c(OC)c(OC)c2)CCCc2cnoc2-3)cc1N
SK-MEL-28 melanoma
  GI50: 3050 nM
  TGI: > 67700 nM
OVCAR-8 ovarian
  GI50: 2140 nM
  TGI: > 100000 nM
NCI-H226 lung
  GI50: 1590 nM
  TGI: > 100000 nM
LOX IMVI melanoma
  GI50: 643 nM
  TGI: > 100000 nM
SNB-19 CNS
  GI50: 734 nM
  TGI: > 100000 nM
EKVX NSCLC
  GI50: 2430 nM
  TGI: > 100000 nM
K-562 leukemia
  GI50: 404 nM
  TGI: > 100000 nM
TK-10 renal
  GI50: 98300 nM
  TGI: > 100000 nM
MDA-MB-435
  GI50: 240 nM
  TGI: 633 nM
MOLT-4 leukemia
  GI50: 1110 nM
  TGI: > 100000 nM
NCI-H23 lung
  GI50: 1750 nM
  TGI: > 100000 nM
HCT-15 colon
  GI50: 543 nM
  TGI: > 100000 nM
NCI-H522 lung
  GI50: 306 nM
  TGI: 1530 nM
MDA-MB-231 breast
  GI50: 1580 nM
  TGI: > 100000 nM
NCI/ADR-RES ovarian
  GI50: 699 nM
  TGI: > 100000 nM
BT-549 breast
  GI50: 436 nM
  TGI: 2730 nM
SF-268 CNS
  GI50: 1140 nM
  TGI: > 100000 nM
CAKI-1 renal
  GI50: 491 nM
  TGI: > 100000 nM
OVCAR-4 ovarian
  GI50: 5130 nM
  TGI: > 100000 nM
T-47D breast
  GI50: 590 nM
  TGI: > 100000 nM
SF-539 CNS
  GI50: 426 nM
  TGI: 4320 nM
SK-MEL-5 melanoma
  GI50: 1010 nM
  TGI: > 37200 nM
KM12 colon
  GI50: 632 nM
  TGI: > 100000 nM
UO-31 renal
  GI50: 761 nM
  TGI: > 100000 nM
SK-MEL-2 melanoma
  GI50: 651 nM
  TGI: > 100000 nM
786-0 renal
  GI50: 823 nM
  TGI: > 100000 nM
RPMI-8226 leukemia
  GI50: 935 nM
  TGI: > 33400 nM
U251 CNS
  GI50: 768 nM
  TGI: > 100000 nM
A498 renal
  GI50: 407 nM
  TGI: 2880 nM
SN12C renal
  GI50: 1750 nM
  TGI: > 100000 nM
SW-620 colon
  GI50: 449 nM
  TGI: > 100000 nM
IGROV1 ovarian
  GI50: 1040 nM
  TGI: > 100000 nM
HS 578T breast
  GI50: 404 nM
  TGI: 6400 nM
SK-OV-3 ovarian
  GI50: 957 nM
  TGI: > 100000 nM
HCT-116 colon
  GI50: 423 nM
  TGI: > 100000 nM
MCF7 breast
  GI50: 392 nM
  TGI: > 100000 nM
HT29 colon
  GI50: 442 nM
  TGI: > 100000 nM
SNB-75 CNS
  GI50: 384 nM
  TGI: 9220 nM
SR leukemia
  GI50: 405 nM
  TGI: > 100000 nM
RXF 393 renal
  GI50: 412 nM
  TGI: 3700 nM
ACHN renal
  GI50: 669 nM
  TGI: > 100000 nM
NCI-H460 lung
  GI50: 410 nM
  TGI: > 100000 nM
DU-145 prostate
  GI50: 1450 nM
  TGI: > 100000 nM
A549 NSCLC
  GI50: 1450 nM
  TGI: > 100000 nM
HCC-2998 colon
  GI50: 1670 nM
  TGI: > 32000 nM
PC-3 prostate
  GI50: 463 nM
  TGI: > 100000 nM
SF-295 CNS
  GI50: 468 nM
  TGI: > 100000 nM
HL-60(TB) leukemia
  GI50: 333 nM
UACC-257 melanoma
  GI50: 578 nM
  TGI: > 100000 nM
HOP-92 NSCLC
  GI50: 432 nM
  TGI: 4820 nM
OVCAR-5 ovarian
  GI50: 1840 nM
  TGI: > 100000 nM
COLO 205 colon
  GI50: 532 nM
  TGI: 2140 nM
HOP-62 NSCLC
  GI50: 814 nM
  TGI: > 100000 nM
UACC-62 melanoma
  GI50: 489 nM
  TGI: > 100000 nM
CCRF-CEM leukemia
  GI50: 430 nM
  TGI: > 100000 nM
M14 melanoma
  GI50: 501 nM
  TGI: > 100000 nM
